{
  "source": "patent US20090209587A1",
  "about": "“REPAGLINIDE FORMULATIONS” (priority 2008, published 2009)",
  "key": {"[1]": {"conditions": "cited from earlier work"}, "[2]": {"experiment": "Bulk/tapped density (USP Test 616), compressibility index and particle size distribution of repaglinide", "format": "physicochemical", "description": "The percentages of particles with different sizes that exist in a total powder is the particle size distribution. It is represented in certain ways. Particle size is the maximum dimension of a particle, frequently expressed in μm. Particle size distributions can be expressed in terms of, D10, D50, D90 and D[4,3]. The D10, D50 and D90 represent the 10th, median or the 50th percentile, and the 90th percentile of the particle size distribution, respectively, as measured by volume. That is, the D10, D50, D90 are values of the distribution such that 10%, 50%, or 90% of the particles have a volume of this value or less, or is the percentage of particles smaller than that size. D50 is also known as median diameter of particle. It is one of the important parameters representing characteristics of particles of powders. For a sample, if D50=5 μm, it means that 50% of the particles are smaller than 5 μm. Similarly if D10=5 μm, 10% of the particles are less than or equal to 5 μm, and if D90=5 μm, 90% of the particles have sizes less than or equal to 5 μm. D[4,3] represents the volume moment mean of the particles, or the volume weighted particle size. Densities were determined according to USP Test 616 “Bulk Density and Tapped Density,” and compressibility index is percentage change in volume induced by tapping a sample of fixed mass."}},
  "data": [
    {"compound": "CCOc1cc(CC(=O)N[C@@H](CC(C)C)c2ccccc2N2CCCCC2)ccc1C(=O)O", "note": "[Repaglinide, S-(+)-2-Ethoxy-4-(2((3-methyl-1-(2-(1-piperidinyl)phenyl)butyl)amino)2-oxoethyl) benzoic acid]", "values": [
      {"measurement": "solubility in methanol", "setting": "[1]; methanol", "value": "freely soluble"},
      {"measurement": "solubility in methylene chloride", "setting": "[1]; methylene chloride", "value": "freely soluble"},
      {"measurement": "solubility in water", "setting": "[1]; water", "value": "practically insoluble"},
      {"measurement": "Particle size distribution D10", "setting": "[2]", "value": 2, "unit": "μm"},
      {"measurement": "Particle size distribution D50", "setting": "[2]", "value": "<4", "unit": "μm"},
      {"measurement": "Particle size distribution D90", "setting": "[2]", "value": "<7", "unit": "μm"},
      {"measurement": "Bulk density", "setting": "[2]; USP Test 616", "value": 0.176, "unit": "g/mL"},
      {"measurement": "Tapped density", "setting": "[2]; USP Test 616", "value": 0.247, "unit": "g/mL"},
      {"measurement": "Compressibility index", "setting": "[2]; percentage change in volume induced by tapping", "value": 29.95}
    ]}
  ]
}
